# The supplement of paper PMC11451515
# System: NOMO1
# Experiment: cell viability relative to DMSO control; higher = less cytotoxic
# Details: 48 h
# How it was run: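 Viability values are per-plate percentages of DMSO wells, with background from cell-free wells. Library compounds in DMSO were pin-dosed, in an 11-point threefold series from 47 μM to 0.79 nM, onto NOMO1 or SEM (500 cells/well) or P12-Ichikawa (1000 cells/well) leukemia cells in 1536-well plates (5 μl). Those cells had been adapted for at least four passages in each medium, and CellTiter-Glo One luminescence was read after 48 h at 37°C.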
# [1] = HPLM + 10% dialyzed FBS, 0.000781 µM
# [2] = HPLM + 10% dialyzed FBS, 0.00234 µM
# [3] = HPLM + 10% dialyzed FBS, 0.00702 µM
# [4] = HPLM + 10% dialyzed FBS, 0.0211 µM
# [5] = HPLM + 10% dialyzed FBS, 0.0632 µM
# [6] = HPLM + 10% dialyzed FBS, 0.19 µM
# [7] = HPLM + 10% dialyzed FBS, 0.569 µM
# [8] = HPLM + 10% dialyzed FBS, 1.71 µM
# [9] = HPLM + 10% dialyzed FBS, 5.12 µM
# [10] = HPLM + 10% dialyzed FBS, 15.4 µM
# [11] = HPLM + 10% dialyzed FBS, 46.1 µM
# [12] = RPMI 5 mM glucose + 10% FBS, 0.000781 µM
# [13] = RPMI 5 mM glucose + 10% FBS, 0.00234 µM
# [14] = RPMI 5 mM glucose + 10% FBS, 0.00702 µM
# [15] = RPMI 5 mM glucose + 10% FBS, 0.0211 µM
# [16] = RPMI 5 mM glucose + 10% FBS, 0.0632 µM
# [17] = RPMI 5 mM glucose + 10% FBS, 0.19 µM
# [18] = RPMI 5 mM glucose + 10% FBS, 0.569 µM
# [19] = RPMI 5 mM glucose + 10% FBS, 1.71 µM
# [20] = RPMI 5 mM glucose + 10% FBS, 5.12 µM
# [21] = RPMI 5 mM glucose + 10% FBS, 15.4 µM
# [22] = RPMI 5 mM glucose + 10% FBS, 46.1 µM
# [23] = RPMI 5 mM glucose + 10% dialyzed FBS, 0.000781 µM
# [24] = RPMI 5 mM glucose + 10% dialyzed FBS, 0.00234 µM
# [25] = RPMI 5 mM glucose + 10% dialyzed FBS, 0.00702 µM
# [26] = RPMI 5 mM glucose + 10% dialyzed FBS, 0.0211 µM
# [27] = RPMI 5 mM glucose + 10% dialyzed FBS, 0.0632 µM
# [28] = RPMI 5 mM glucose + 10% dialyzed FBS, 0.19 µM
# [29] = RPMI 5 mM glucose + 10% dialyzed FBS, 0.569 µM
# [30] = RPMI 5 mM glucose + 10% dialyzed FBS, 1.71 µM
# [31] = RPMI 5 mM glucose + 10% dialyzed FBS, 5.12 µM
# [32] = RPMI 5 mM glucose + 10% dialyzed FBS, 15.4 µM
# [33] = RPMI 5 mM glucose + 10% dialyzed FBS, 46.1 µM
SMILES,cell viability [1],cell viability [2],cell viability [3],cell viability [4],cell viability [5],cell viability [6],cell viability [7],cell viability [8],cell viability [9],cell viability [10],cell viability [11],cell viability [12],cell viability [13],cell viability [14],cell viability [15],cell viability [16],cell viability [17],cell viability [18],cell viability [19],cell viability [20],cell viability [21],cell viability [22],cell viability [23],cell viability [24],cell viability [25],cell viability [26],cell viability [27],cell viability [28],cell viability [29],cell viability [30],cell viability [31],cell viability [32],cell viability [33]
COCC(=O)NC/C=C/c1ccc2ncnc(Nc3ccc(Oc4ccc(C)nc4)c(C)c3)c2c1,84.6%,89.4%,109%,90.8%,92.1%,57.3%,65.8%,52.9%,37%,42.4%,34.2%,94.2%,96.4%,107%,95%,90.6%,81.3%,78%,49.7%,60.2%,50.1%,52.8%,87.7%,90.6%,93.9%,99.8%,97.4%,92.2%,78.4%,71.2%,57.6%,66.8%,41%
COc1cc(C[C@@H](CO)[C@H](CO)Cc2ccc(O)c(OC)c2)ccc1O,97.7%,99.3%,97.2%,123%,112%,122%,126%,108%,107%,101%,104%,107%,118%,101%,111%,103%,108%,106%,97.2%,104%,94.4%,102%,95.8%,111%,113%,107%,118%,110%,107%,107%,104%,103%,112%
COCCCC/C(=N\OCCN)c1ccc(C(F)(F)F)cc1,85.7%,80.4%,79.2%,85.2%,94.8%,91.8%,78.6%,64.2%,81.3%,48.9%,3.91%,84.2%,82%,80.9%,84.5%,80.7%,79.5%,82%,83%,72.5%,72.7%,25.5%,72.7%,80.1%,83.5%,88.8%,90.1%,73.1%,75.9%,80%,77.1%,77.1%,28.7%
CN(C[C@@H]1COCCO1)[S+]([O-])(=O)NC2=CC3=C(C=C2)\C=C/C4=C(C=C(C=N4)C5=C[N](C)N=C5)C3=O,89.6%,107%,92.5%,92.1%,84.5%,72.2%,62.2%,47.1%,41.1%,26.2%,26.6%,92.2%,101%,90.6%,114%,93.8%,91.2%,86.9%,57.1%,49.5%,35.2%,33.3%,84.5%,104%,98.4%,87.4%,99.2%,91.9%,73.7%,52.1%,48.9%,39.8%,31.6%
CCN1\C=C(C(O)=O)/C(=O)C2=C1C(=C(N3CCNC(C)C3)C(=C2)F)F (centres undefined),101%,103%,114%,115%,118%,121%,121%,129%,128%,120%,114%,114%,117%,102%,115%,121%,107%,122%,116%,123%,116%,111%,103%,112%,104%,106%,118%,112%,111%,122%,113%,139%,98.3%
C=C1CCC2[C@](C)(CO)C(O)CC[C@]2(C)C1C/C=C1/C(=O)OCC1O (some centres undefined),–,–,–,–,–,–,–,–,–,–,–,111%,109%,115%,101%,114%,113%,99.3%,105%,97.5%,104%,98.4%,121%,104%,114%,110%,118%,107%,105%,109%,95.5%,101%,96.9%
CCCC[S+](=N)([O-])CCC(N)C(=O)O (centres undefined),120%,122%,138%,138%,157%,131%,150%,142%,148%,89.2%,28.7%,–,–,–,–,–,–,–,–,–,–,–,–,–,–,–,–,–,–,–,–,–,–
COC(=O)[C@H](Cc1ccccc1)NC(=O)[C@@H](N)CC(=O)O,110%,124%,116%,112%,128%,115%,113%,112%,93.6%,96.1%,94.9%,108%,121%,125%,122%,110%,126%,115%,107%,112%,105%,108%,126%,117%,120%,112%,112%,125%,106%,122%,70.4%,116%,108%
CC(C)C[C@H](CC(=O)O)C(=O)N[C@@H](Cc1c[nH]c2ccccc12)C(=O)N[C@@H](C)c1ccccc1,122%,114%,124%,112%,109%,123%,104%,116%,95.9%,60.9%,37.3%,91.3%,93.9%,105%,103%,109%,109%,107%,107%,105%,74.8%,29.5%,104%,115%,105%,105%,114%,114%,116%,127%,113%,113%,56.6%
